The numbers were not newly measured in patent US8449914B2, “Controlled release carvedilol compositions” (Egalet Ltd., priority 2002, dated 2013), which cites them from elsewhere.

Where two headings read alike, the source gives them in different places. Where only a bound is given, the exact number is not on record here.

In one series the test system is alpha1-adrenoreceptor. As to conditions: IR formulation.
Test in series [1]: not given
The source holds these as a separate data set.

In series [2] the test system is beta-adrenoreceptor. As to conditions: humans.
For series [3], the system named is beta-adrenoreceptor. As to conditions: preclinical studies.

As for `COc1ccccc1OCCNCC(O)COc1cccc2[nH]c3ccccc3c12` (racemic) [Carvedilol], the “time after administration at which alpha-mediated vasodilatory effects are evident” value in the series on alpha1-adrenoreceptor is no more than 30 min. Also, the “steady-state volume of distribution” value (in vivo) is on record as “approximately 115 L”. Further, the “absorption in the large intestine, share of the total absorption” value (timed-release capsules, study by Nolte et al) is recorded as “approximately 10%”. Also, the solubility entry in series [1] (95% ethanol) is recorded as “sparingly soluble”; in series [1] (dimethylsulfoxide), “freely soluble”; in series [1] (ethyl ether) it was “slightly soluble”; in series [1] (gastric fluid (simulated, TS, pH1.1)) it was “practically insoluble”; in series [1] (intestinal fluid (simulated, TS without pancreatin, pH 7.5)), “practically insoluble”; in series [1] (isopropanol), “sparingly soluble”. The solubility result is “soluble” in series [1] (methanol), “soluble” in series [1] (methylene chloride) and “practically insoluble” in series [1] (water). The “time after administration at which beta-blocking actions are evident” value in the series on beta-adrenoreceptor [2] is “one”.

`COc1cc(O)ccc1OCCNCC(O)COc1cccc2[nH]c3ccccc3c12` (centres unmarked) [4′-hydroxyphenyl metabolite, 4′-hydroxy carvedilol]: the “potency for beta-blockade relative to carvedilol” value in the series on beta-adrenoreceptor [3] is reported as “approximately 13 times”.

With `COc1ccccc1OCCNC[C@@H](O)COc1cccc2[nH]c3ccccc3c12` [R(+)-carvedilol], for the setting “in vivo”, the “mean apparent terminal elimination half-lives” value is 5 to 9 h and the “plasma concentrations in poor metabolizers of debrisoquin compared to extensive metabolizers” value was 2-3 fold.

As for `COc1ccccc1OCCNC[C@H](O)COc1cccc2[nH]c3ccccc3c12` [S(−)-carvedilol], the “mean apparent terminal elimination half-lives” value (in vivo) was 7 to 11 h.
